# Values joined by “and” are separate entries in the source; they are usually repeats but may differ in a detail not shown here. Identical values can stand only once.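 1) Cells in 96-well plates. 2) Compound, 48 h, 5 concentrations. 3) Linear interpolation between surrounding doses. 4) Unreached endpoint = highest concentration. At the GI50, growth is halved. TGI is the concentration that stops growth completely.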
# How the values were obtained:
# Test in all cases: NCI tumour cell line growth inhibition, 48 h
# MOLT-4 leukemia = tested on: MOLT-4 leukemia
# SF-268 CNS = tested on: SF-268 CNS
# NCI-H522 lung = tested on: NCI-H522 lung
# IGROV1 ovarian = tested on: IGROV1 ovarian
# SNB-75 CNS = tested on: SNB-75 CNS
# T-47D breast = tested on: T-47D breast
# NCI-H226 lung = tested on: NCI-H226 lung
# HCT-116 colon = tested on: HCT-116 colon
# MCF7 breast = tested on: MCF7 breast
# EKVX NSCLC = tested on: EKVX NSCLC
Compound,GI50 (MOLT-4 leukemia),TGI (MOLT-4 leukemia),GI50 (SF-268 CNS),TGI (SF-268 CNS),GI50 (NCI-H522 lung),TGI (NCI-H522 lung),GI50 (IGROV1 ovarian),TGI (IGROV1 ovarian),GI50 (SNB-75 CNS),TGI (SNB-75 CNS),GI50 (T-47D breast),TGI (T-47D breast),GI50 (NCI-H226 lung),TGI (NCI-H226 lung),GI50 (HCT-116 colon),TGI (HCT-116 colon),GI50 (MCF7 breast),TGI (MCF7 breast),GI50 (EKVX NSCLC),TGI (EKVX NSCLC)
CCN(CC)C(=O)CCCCCn1c2ccccc2c2c3c(c4c5ccccc5[nH]c4c21)C(=O)N(O)C3=O,2.05 µM,6.13 µM,3.97 µM,> 100 µM,1.41 µM,3.13 µM,2.41 µM,6.87 µM,7.71 µM,> 100 µM,4.12 µM,52.1 µM,14.1 µM,54.4 µM,3.75 µM,28.1 µM,2.94 µM,> 100 µM,10.9 µM,58.4 µM
CCC1=C(c2ccc(OC)cc2)CC[C@]2(CCNC2=O)[C@@H]1C,,39.7 µM,,> 100 µM,,56.3 µM,,> 100 µM,,> 95.6 µM,,> 91.1 µM,,> 100 µM,,52.6 µM,,46.7 µM,,> 86.7 µM
CN1CC[C@]23c4c5ccc(O)c4OC2c2[nH]ncc2C[C@H]3[C@H]1C5 (stereo not given in full),,> 100 µM,,> 100 µM,,> 100 µM,,> 100 µM,,> 100 µM,,> 100 µM,,> 100 µM,,> 100 µM,,> 100 µM,,> 100 µM
CCOC(=O)n1c2ccccc2c(=O)n1CCO,,> 100 µM,,> 100 µM,,> 100 µM,,> 100 µM,,> 100 µM,,> 100 µM,,> 100 µM,,> 100 µM,,> 100 µM,,> 100 µM
COC(=O)c1ccc2c(c1)C(=O)c1c-2n(CCCCl)c(=O)c2cc(OC)c(OC)cc12,,,> 100 µM,> 100 µM,> 100 µM,> 100 µM,> 100 µM,> 100 µM,12.9 µM,91.6 µM,> 100 µM,> 100 µM,> 100 µM,> 100 µM,> 100 µM,> 100 µM,> 100 µM,> 100 µM,> 100 µM,> 100 µM
CN(c1ccc(NC(=O)NCCN2CCOCC2)cc1)c1ccnc(Nc2ccc(CS(C)(=O)=O)cc2)n1,> 25 µM,> 25 µM,> 25 µM,> 25 µM,> 25 µM,> 25 µM,> 25 µM,> 25 µM,> 25 µM,> 25 µM,> 23.6 µM,> 25 µM,9.18 µM,> 25 µM,> 25 µM,> 25 µM,> 21.7 µM,> 25 µM,> 25 µM,> 25 µM
COc1cc2c3c(n(CCCN4CCSCC4)c(=O)c2cc1OC)-c1cc2c(cc1C3=O)OCO2,0.632 µM,13.4 µM,28.2 µM,> 100 µM,19.9 µM,65.4 µM,28.8 µM,86.2 µM,12.9 µM,27.5 µM,> 100 µM,> 100 µM,59.9 µM,> 100 µM,73.1 µM,> 100 µM,61.4 µM,> 100 µM,> 100 µM,> 100 µM
N=C(N)c1ccc(OCCCCCOc2ccc(C(=N)N)cc2)cc1,23.3 µM and 12 µM and 28.3 µM,> 50 µM and 51.8 µM and > 100 µM,4.48 µM,13.6 µM and 34.2 µM and 37.7 µM,1.66 µM,9.58 µM and 21.3 µM,10.2 µM and 13 µM and 35.5 µM,> 50 µM and 27 µM and > 100 µM,,33.1 µM and 18.3 µM and > 100 µM,1.14 µM,13.3 µM and 37.7 µM and > 100 µM,5.24 µM and 6.96 µM and 14.2 µM,> 50 µM and 30.2 µM and 58.8 µM,4.59 µM,> 50 µM and 37.8 µM and > 100 µM,2.59 µM,14.4 µM and 25.9 µM and 28.5 µM,8.89 µM,> 50 µM and 45.5 µM and 72.6 µM
CC(C)C/C(=N\NC(=O)c1ccncc1)c1cc(Cl)ccc1O,0.29 µM,20.8 µM,0.399 µM,> 76.6 µM,0.312 µM,16 µM,0.224 µM,17.3 µM,11.6 µM,> 100 µM,0.584 µM,33.3 µM,0.848 µM,22.5 µM,0.244 µM,11 µM,0.484 µM,12.3 µM,0.312 µM,25.3 µM
O=S(=O)(NCCCNc1nccc(-c2c(-c3cccc(F)c3)nc3occn23)n1)c1cccc2ccccc12,3.54 µM,> 100 µM,7.39 µM,> 100 µM,9.17 µM,> 100 µM,3.33 µM,> 100 µM,3.38 µM,> 100 µM,2.59 µM,> 100 µM,5.12 µM,> 100 µM,3.71 µM,> 100 µM,4.07 µM,> 100 µM,6.04 µM,> 100 µM
O=C(/C=C/c1cccc(Oc2ccc(Cl)cc2)c1)c1ccccc1,30.8 µM,,75.5 µM,209 µM,67.1 µM,246 µM,28.1 µM,101 µM,124 µM,269 µM,46.3 µM,235 µM,122 µM,273 µM,20.6 µM,41.7 µM,26.9 µM,118 µM,104 µM,261 µM
N#Cc1cccc(C2C3=C(COC3=O)N(CCO)c3cc4c(cc32)CCC4)c1 (stereo not given),0.203 µM,> 50 µM,0.368 µM,> 50 µM,0.025 µM,1.67 µM,0.172 µM,> 43.8 µM,0.0393 µM,,0.271 µM,> 50 µM,1.67 µM,> 50 µM,0.143 µM,13.3 µM,0.0411 µM,> 50 µM,0.259 µM,> 50 µM
C=CC[PH+](c1ccccc1)c1ccccc1.C=CC[PH+](c1ccccc1)c1ccccc1.[Pt+2].[S-]c1ncccn1.[S-]c1ncccn1,3.26 µM,> 100 µM,25.9 µM,> 100 µM,2.17 µM,5.78 µM,15.1 µM,43.8 µM,8.25 µM,> 100 µM,3.71 µM,87.2 µM,16.6 µM,39.9 µM,2.17 µM,4.88 µM,4.8 µM,> 100 µM,26.9 µM,> 100 µM
CCN(CC)CCS(=O)(=O)CCNc1ccnc2cc(Cl)ccc12,1.34 µM,49 µM,2.86 µM,> 49.5 µM,0.758 µM,2.11 µM,2.26 µM,16.7 µM,2.07 µM,> 29 µM,6.23 µM,48.8 µM,4.61 µM,> 100 µM,0.834 µM,4.63 µM,1.86 µM,> 33.8 µM,4.31 µM,> 46.1 µM
Nc1n[nH]c2ccc([C@@H]3Nc4c(F)cc5[nH]ncc5c4[C@H]4C5CCC(C5)[C@@H]34)cc12 (stereo not given in full),0.439 µM,> 45.5 µM,2.34 µM,> 47.5 µM,0.102 µM,2.17 µM,0.391 µM,> 46.2 µM,0.0993 µM,7.25 µM,0.509 µM,> 100 µM,0.629 µM,> 19.9 µM,0.293 µM,6.22 µM,0.0702 µM,> 43.4 µM,0.632 µM,> 71.5 µM
Cc1n(Cc2ccc3ccccc3n2)cc[n+]1Cc1ccc2ccccc2c1,0.948 µM,10.6 µM,0.784 µM,14 µM,0.312 µM,1.58 µM,1.12 µM,4.76 µM,0.322 µM,3.39 µM,0.371 µM,7.22 µM,0.965 µM,8.36 µM,0.61 µM,10.4 µM,0.526 µM,6.08 µM,2.17 µM,21 µM
CCc1c(C#N)c(SC(C(N)=O)c2ccccc2)nc(N2CCC(N)CC2)c1C#N (stereo not given),11.5 µM,31.2 µM,14.2 µM,29.2 µM,12.9 µM,27.1 µM,14 µM,27.9 µM,11.2 µM,24.6 µM,14.6 µM,31.8 µM,13 µM,27.7 µM,13.5 µM,27.4 µM,13 µM,26.8 µM,15.5 µM,36.9 µM
Cc1cn2c(/C=C3/C(=O)Nc4ccc(C(=O)O)cc43)c(C)nc2s1,> 100 µM,> 100 µM,> 100 µM,> 100 µM,> 100 µM,> 100 µM,> 100 µM,> 100 µM,> 100 µM,> 100 µM,> 100 µM,> 100 µM,> 100 µM,> 100 µM,,,> 100 µM,> 100 µM,> 100 µM,> 100 µM
Nc1ccn([C@@H]2S[C@H](CO)[C@@H](O)[C@@H]2F)c(=O)n1,0.0304 µM,> 100 µM,0.26 µM,> 100 µM,8.83 µM,> 100 µM,0.74 µM,> 100 µM,2.73 µM,> 100 µM,1.35 µM,> 100 µM,0.485 µM,> 48.4 µM,0.0393 µM,> 100 µM,0.0545 µM,> 100 µM,0.648 µM,> 100 µM
Cc1ccc(-c2nc(C(Cl)Cl)nc3cc(C)nn23)cc1,1.82 µM,> 100 µM,2.69 µM,> 100 µM,2.14 µM,> 100 µM,,,1.48 µM,8.39 µM,2.86 µM,> 100 µM,> 100 µM,> 100 µM,2.09 µM,> 100 µM,1.97 µM,> 100 µM,2.19 µM,6.45 µM
Oc1ccc(-c2[nH]c3ccccc3c2-c2nc3ccccc3o2)cc1,6.49 µM,41.3 µM,2.89 µM,12.9 µM,2.83 µM,9.65 µM,3.34 µM,16.3 µM,1.44 µM,10.4 µM,3.08 µM,15.4 µM,3.14 µM,15.3 µM,3.15 µM,13 µM,2.83 µM,10.5 µM,4.76 µM,21.9 µM
COc1ncc2cc1NS(=O)(=O)c1cccc(c1)C(=O)NCC1=CC=C(S1)c1ncnc3c1SC2=C3C,,,0.37 µM,11.8 µM,0.467 µM,2.61 µM,0.0715 µM,1.6 µM,0.0176 µM,2.26 µM,0.0946 µM,4.04 µM,0.47 µM,2.6 µM,0.277 µM,2.85 µM,0.104 µM,1.62 µM,0.234 µM,2.54 µM
Cc1ccc(O)cc1Nc1ccnc2cc(-c3ccccn3)ccc12,4.18 µM,10.7 µM,1.71 µM,5.88 µM,0.931 µM,4.6 µM,0.502 µM,2.13 µM,0.405 µM,3.43 µM,1.72 µM,9.86 µM,3.88 µM,11.9 µM,3.49 µM,6.96 µM,2.71 µM,6.07 µM,3.61 µM,17.3 µM
COc1cc2c(cc1OC)C(SC)C(=O)N(Cc1cccc(OC)c1OC)CC2 (stereo not given),,45.5 µM,,> 100 µM,,3.07 µM,,> 90.8 µM,,> 100 µM,,21.2 µM,,26.8 µM,,> 70.2 µM,,> 42.6 µM,,> 100 µM
NCC(Cc1ccccc1)P(=O)(O)O (stereo not given),,> 100 µM,,> 100 µM,,> 100 µM,,> 100 µM,,> 100 µM,,> 100 µM,,> 100 µM,,> 100 µM,,> 100 µM,,> 100 µM
C=C(C)[C@@H]1CC[C@]2(C(=O)n3ccnc3)CC[C@]3(C)[C@H](CC[C@@H]4[C@@]5(C)CCCNC(C)(C)[C@@H]5CC[C@]43C)[C@@H]12,,,2.77 µM,9.21 µM,1.91 µM,3.71 µM,1.58 µM,3.27 µM,2.48 µM,10.1 µM,1.53 µM,3.54 µM,2.23 µM,4.8 µM,1.03 µM,2.25 µM,1.5 µM,3.23 µM,1.74 µM,4.1 µM
CCN(CC)Cc1cc(Nc2cc(C(F)(F)F)c(C#N)c3nc4ccccc4n23)ccc1O,2.46 µM,75 µM,2.51 µM,18.3 µM,1.05 µM,2.74 µM,,,1.41 µM,7.54 µM,0.452 µM,3.65 µM,1.34 µM,10.4 µM,1.6 µM,4.45 µM,1.75 µM,10.7 µM,0.526 µM,8.39 µM
